Test results from patent publication US20240182513A1, “SEPARATION OF METAL IONS FROM A SAMPLE USING GLYCOLIPIDS” (ARIZONA BOARD OF REGENTS ON BEHALF OF THE UNIVERSITY OF …, priority 2021, published 2024).

Assay: Example 2.2 glycolipid facilitated chemical precipitation: lead
Protocol: Nine different structural variants were selected to examine the effect of the headgroup and number and length of the hydrophobic tail(s) on glycolipids as a chemical precipitant (Table 6). These solutions were made in advance and stored at 4° C. for up to one month and brought to room temperature (˜25° C.) before each experiment.
Each metal (Pb^2+, La^3+, and Mg^2+) was evaluated separately with each of the nine glycolipids. […] The reactions were mixed in the order of nanopure water (≥18 MΩ-cm), glycolipid solution, then metal solution. The metal and glycolipid solutions were continuously stirred as they were aliquoted into the reaction tubes. All experiments were performed in triplicate.
The reaction tubes were rotated overnight (16 to 24 h) and then three samples were collected from each tube to measure metal removal from solution: (1) no further treatment; (2) an additional filtration step; and (3) an additional centrifugation step. Briefly, for the glycolipid adsorption treatment samples all tubes were vortexed for approximately 5 sec immediately before sampling to ensure that non-adsorbed glycolipid-metal complexes were mixed into the solution column. After mixing, 0.1 ml of the reaction solution was aliquoted into a dilution tube of 2% trace metal grade nitric acid for analysis. This sample measures the loss of metal due to the formation of hydrophobic scums or adsorbed complexes not attributable to the subsequent filtration or centrifugation treatments.
Samples for the filtration treatment were vortexed for 5 sec, then a 0.6 ml aliquot was collected with a 1 ml syringe. A GHP acrodisc disk filter (hydrophilic polypropylene membrane, 0.45 µm pore size, 25 mm disc diameter) from Pall Life Sciences (Port Washington, New York) or PTFE disk filters (hydrophobic polytetrafluoroethylene membrane, 0.45 μm pore size, 25 mm disc diameter) from Fisher Scientific (Waltham, MA) was then placed onto the end of the syringe and approximately 0.1 ml of filtrate was collected into a dilution tube for analysis. The centrifuge sample was collected by centrifuging the remaining reaction solution at 10,000 RCF for 15 min. Approximately 0.1 ml of the supernatant was aliquoted into a dilution tube for analysis. Following collection, the metal content in all samples was analyzed at the Arizona Laboratory for Emerging Contaminants (ALEC) at the University of Arizona using inductively coupled plasma mass spectrometry.
R was determined by comparing the solution metal concentration of the treatment sample (Cnt for the glycolipid with no further treatment sample, Cf for the glycolipid and filtration sample, and Cc for the glycolipid and centrifugation sample) to the solution metal concentration of a glycolipid-free control (Ci) that underwent the same handling and processing steps. The equations for these calculations are shown below: […]

For `CCCCCCCC(CC(=O)O)OC1O[C@H](CO)[C@H](O)[C@H](O)[C@H]1O` (some centres unmarked) [Gal-C10], the “Pb^2+ removal” value (precipitation followed by filtration, 2:1 molar ratio) was 95.5% and the “Pb^2+ maximum removal” value (precipitation without further treatment, maximum over molar ratios) was 38%.
